Patent US20160159816A1, “SUBSTITUTED THIENOPYRIMIDINES AND PHARMACEUTICAL USE THEREOF” (BAYER PHARMA AKTIENGESELLSCHAFT, priority 2013, published 2016)

biological target: T1, human full-length MKNK1 (Homo sapiens, UniProt Q9BUB5, T385D); experiment: MKNK1 kinase high ATP assay (TR-FRET); format: biochemical; details: high ATP (2 mM), after preincubation with MKNK1; compounds of the present invention (Table 1a)
T1 construct: GST (N); purchased Carna Biosciences 02-145; host or cells: insect cells, baculovirus expression system
Description: MKNK1-inhibitory activity at high ATP of compounds of the present invention after their preincubation with MKNK1 was quantified employing the TR-FRET-based MKNK1 high ATP assay as described in the following paragraphs.
A recombinant fusion protein of Glutathione-S-Transferase (GST, N-terminally) and human full-length MKNK1 (amino acids 1-424 and T344D of accession number BAA 19885.1), expressed in insect cells using baculovirus expression system and purified via glutathione sepharose affinity chromatography, was purchased from Carna Biosciences (product no 02-145) and used as enzyme. As substrate for the kinase reaction the biotinylated peptide biotin-Ahx-IKKRKLTRRKSLKG (C-terminus in amide form) was used, which can be purchased e.g. from the company Biosyntan (Berlin-Buch, Germany).
For the assay 50 nL of a 100 fold concentrated solution of the test compound in DMSO was pipetted into a black low volume 384 well microtiter plate (Greiner Bio-One, Frickenhausen, Germany), 2 μL of a solution of MKNK1 in aqueous assay buffer [50 mM HEPES pH 7.5, 5 mM MgCl2, 1.0 mM dithiothreitol, 0.005% (v/v) Nonidet-P40 (Sigma)] was added and the mixture was incubated for 15 min at 22° C. to allow pre-binding of the test compounds to the enzyme before the start of the kinase reaction. Then the kinase reaction was started by the addition of 3 μL of a solution of adenosine-tri-phosphate (ATP, 3.3 mM=>final conc. in the 5 μL assay volume is 2 mM) and substrate (0.1 μM=>final conc. in the 5 μL assay volume is 0.06 μM) in assay buffer and the resulting mixture was incubated for a reaction time of 30 min at 22° C. The concentration of MKNK1 was adjusted depending of the activity of the enzyme lot and was chosen appropriate to have the assay in the linear range, typical concentrations were in the range of 0.003 μg/mL. The reaction was stopped by the addition of 5 μL of a solution of TR-FRET detection reagents (5 nM streptavidine-XL665 [Cisbio Bioassays, Codolet, France] and 1 nM anti-ribosomal protein […] (pSer236)-antibody from Invitrogen [#44921G] and 1 nM LANCE EU-W1024 labeled ProteinG [Perkin-Elmer, product no. AD0071]) in an aqueous EDTA-solution (100 mM EDTA, 0.1% (w/v) bovine serum albumin in 50 mM HEPES pH 7.5).
The resulting mixture was incubated for 1 h at 22° C. to allow the formation of complex between the phosphorylated biotinylated peptide and the detection reagents. Subsequently the amount of phosphorylated substrate was evaluated by measurement of the resonance energy transfer from the Eu-chelate to the streptavidine-XL. Therefore, the fluorescence emissions at 620 nm and 665 nm after excitation at 350 nm were measured in a TR-FRET reader, e.g. a Rubystar (BMG Labtechnologies, Offenburg, Germany) or a Viewlux (Perkin-Elmer). The ratio of the emissions at 665 nm and at […] was taken as the measure for the amount of phosphorylated substrate. The data were normalised (enzyme reaction without inhibitor=0% inhibition, all other assay components but no enzyme=100% inhibition). […] Table 1a lists MKNK1 high ATP IC50 values of some compounds of the present invention.

T1 sequence (Q9BUB5 1-424 isoform Q9BUB5-2 T344D): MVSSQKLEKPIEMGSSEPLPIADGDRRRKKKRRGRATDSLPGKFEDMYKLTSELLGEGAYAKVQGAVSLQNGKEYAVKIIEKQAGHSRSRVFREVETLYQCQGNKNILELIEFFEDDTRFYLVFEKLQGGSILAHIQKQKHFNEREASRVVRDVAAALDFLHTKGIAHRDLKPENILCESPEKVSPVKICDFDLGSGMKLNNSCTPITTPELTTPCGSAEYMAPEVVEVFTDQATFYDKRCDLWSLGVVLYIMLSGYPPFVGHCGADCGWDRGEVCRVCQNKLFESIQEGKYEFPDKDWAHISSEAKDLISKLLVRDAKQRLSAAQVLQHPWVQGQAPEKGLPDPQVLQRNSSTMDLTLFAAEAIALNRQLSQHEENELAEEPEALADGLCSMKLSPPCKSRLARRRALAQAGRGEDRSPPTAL

| IC50 | Structure (SMILES) |
| --- | --- |
| 3.1 nM | COc1cc2[nH]ncc2cc1Nc1ncnc2sc3c(c12)CCC(CNC(=O)NC(C)C)C3 (racemic) [Example 20, (RS)-1-({4-[(6-Methoxy-1H-indazol-5-yl)amino]-5,6,7,8-tetrahydro[1]benzothieno[2,3-d]pyrimidin-7-yl}methyl)-3-propan-2-ylurea] |
| 21.4 nM | COCCN(C)C(=O)[C@]1(C)CCc2c(sc3ncnc(Nc4cc5cn[nH]c5cc4OC)c23)C1 [Example 57, (7R) N-(2-Methoxyethyl)-4-[(6-methoxy-1H-indazol-5-yl)amino]-N,7-dimethyl-5,6,7,8-tetrahydro[1]benzothieno[2,3-d]pyrimidine-7-carboxamide] |
| 69.3 nM | COCC1(OC)CCc2c(sc3ncnc(Nc4ccc5[nH]ncc5c4)c23)C1 (single isomer, unassigned) [Example 39, (7S) or (7R) N-(1H-Indazol-5-yl)-7-methoxy-7-(methoxymethyl)-5,6,7,8-tetrahydro[1]benzothieno[2,3-d]pyrimidin-4-amine] |
| 50.9 nM | CC[C@@]1(C(=O)N2C[C@@H](C)O[C@@H](C)C2)CCc2c(sc3ncnc(Nc4cc5cn[nH]c5cc4OC)c23)C1 [Example 70, (7R) [(2R,6S)-2,6-Dimethylmorpholin-4-yl]{7-ethyl-4-[(6-methoxy-1H-indazol-5-yl)amino]-5,6,7,8-tetrahydro[1]benzothieno[2,3-d]pyrimidin-7-yl}methanone] |
| 9.1 nM | COCC1(OC)CCc2c(sc3ncnc(Nc4cc5cn[nH]c5cc4OC)c23)C1 (racemic) [Example 32, (RS)-7-Methoxy-N-(6-methoxy-1H-indazol-5-yl)-7-(methoxymethyl)-5,6,7,8-tetrahydro[1]benzothieno[2,3-d]pyrimidin-4-amine] |
| 20.5 nM | OCc1cn(C[C@@H]2CCc3c(sc4ncnc(Nc5ccc6[nH]ncc6c5)c34)C2)nn1 (single isomer, unassigned) [Example 34, (1-{[(7R or 7S)-4-(1H-Indazol-5-ylamino)-5,6,7,8-tetrahydro[1]benzothieno[2,3-d]pyrimidin-7-yl]methyl}-1H-1,2,3-triazol-4-yl)methanol] |
| 47.8 nM | COCC1(OC)CCc2c(sc3ncnc(Nc4ccc5[nH]ncc5c4)c23)C1 (racemic) [Example 37, (7RS)—N-(1H-Indazol-5-yl)-7-methoxy-7-(methoxymethyl)-5,6,7,8-tetrahydro[1]benzothieno[2,3-d]pyrimidin-4-amine] |
| 2.4 nM | COc1cc2[nH]ncc2cc1Nc1ncnc2sc3c(c12)CC[C@](C)(C(=O)N(C)C)C3 [Example 48, (7S) 4-[(6-Methoxy-1H-indazol-5-yl)amino]-N,N,7-trimethyl-5,6,7,8-tetrahydro[1]benzothieno[2,3-d]pyrimidine-7-carboxamide] |
| 3.2 nM | COc1cc2[nH]ncc2cc1Nc1ncnc2sc3c(c12)CCC(CO)C3 (racemic) [Example 17, (RS)-{4-[(6-Methoxy-1H-indazol-5-yl)amino]-5,6,7,8-tetrahydro[1]benzothieno[2,3-d]pyrimidin-7-yl}methanol] |
| 5 nM | COc1cc2[nH]ncc2cc1Nc1ncnc2sc3c(c12)CCC(CNC(=O)[C@@H](O)Cc1ccccc1)C3 (mixture of isomers) [Example 23, (2R)-2-Hydroxy-N-({(7RS)-4-[(6-methoxy-1H-indazol-5-yl)amino]-5,6,7,8-tetrahydro[1]benzothieno[2,3-d]pyrimidin-7-yl}methyl)-3-phenylpropanamide] |
| 26.3 nM | CC[C@@]1(C(=O)N(C)CCOC)CCc2c(sc3ncnc(Nc4cc5cn[nH]c5cc4OC)c23)C1 [Example 64, (7R) 7-Ethyl-N-(2-methoxyethyl)-4-[(6-methoxy-1H-indazol-5-yl)amino]-N-methyl-5,6,7,8-tetrahydro[1]benzothieno[2,3-d]pyrimidine-7-carboxamide] |
| 4.3 nM | COc1cc2[nH]ncc2cc1Nc1ncnc2sc3c(c12)CC[C@](C)(C(=O)N1CCOC[C@H]1C)C3 [Example 54, (7S) {4-[(6-Methoxy-1H-indazol-5-yl)amino]-7-methyl-5,6,7,8-tetrahydro[1]benzothieno[2,3-d]pyrimidin-7-yl}[(3R)-3-methylmorpholin-4-yl]methanone] |
| 2 nM | COc1cc2[nH]ncc2cc1Nc1ncnc2sc3c(c12)CC[C@](C)(C(=O)N1CCOCC1)C3 [Example 52, (7S) {4-[(6-Methoxy-1H-indazol-5-yl)amino]-7-methyl-5,6,7,8-tetrahydro[1]benzothieno[2,3-d]pyrimidin-7-yl}(morpholin-4-yl)methanone] |
| 149 nM | COCC1(OC)CCc2c(sc3ncnc(Nc4cc5cn[nH]c5cc4Cl)c23)C1 (racemic) [Example 31, (RS)—N-(6-Chloro-1H-indazol-5-yl)-7-methoxy-7-(methoxymethyl)-5,6,7,8-tetrahydro[1]benzothieno[2,3-d]pyrimidin-4-amine] |
| 19.6 nM | CC(O)C(=O)NCC1CCc2c(sc3ncnc(Nc4ccc5[nH]ncc5c4)c23)C1 (racemic) [Example 12, (2RS)-2-Hydroxy-N-{[(7RS)-4-(1H-indazol-5-ylamino)-5,6,7,8-tetrahydro[1]benzothieno[2,3-d]pyrimidin-7-yl]methyl}propanamide] |
| 89.2 nM | COCC1(OC)CCc2c(sc3ncnc(Nc4cc5cn[nH]c5cc4Cl)c23)C1 (single isomer, unassigned) [Example 46, (7R) or (7S) N-(6-Chloro-1H-indazol-5-yl)-7-methoxy-7-(methoxymethyl)-5,6,7,8-tetrahydro[1]benzothieno[2,3-d]pyrimidin-4-amine] |
| 106 nM | COCC1(OC)CCc2c(sc3ncnc(Nc4ccc5[nH]ncc5c4)c23)C1 (single isomer, unassigned) [Example 38, (7R) or (7S) N-(1H-Indazol-5-yl)-7-methoxy-7-(methoxymethyl)-5,6,7,8-tetrahydro[1]benzothieno[2,3-d]pyrimidin-4-amine] |
| 155 nM | NCC1CCc2c(sc3ncnc(Nc4ccc5[nH]ncc5c4)c23)C1 (racemic) [Example 7, (RS)-7-(Aminomethyl)-N-(1H-indazol-5-yl)-5,6,7,8-tetrahydro[1]benzothieno[2,3-d]pyrimidin-4-amine] |
| 23.9 nM | COc1cc2[nH]ncc2cc1Nc1ncnc2sc3c(c12)CCC(CN=[N+]=[N-])C3 (racemic) [Example 18, (RS)-7-(Azidomethyl)-N-(6-methoxy-1H-indazol-5-yl)-5,6,7,8-tetrahydro[1]benzothieno[2,3-d]pyrimidin-4-amine] |
| 34.4 nM | CC(C)NC(=O)NCC1CCc2c(sc3ncnc(Nc4ccc5[nH]ncc5c4)c23)C1 (racemic) [Example 8, (RS)-1-{[4-(1H-Indazol-5-ylamino)-5,6,7,8-tetrahydro[1]benzothieno[2,3-d]pyrimidin-7-yl]methyl}-3-propan-2-ylurea] |
| 38.4 nM | CC[C@@]1(C(=O)N(C)C(C)C)CCc2c(sc3ncnc(Nc4cc5cn[nH]c5cc4OC)c23)C1 [Example 72, (7R) 7-Ethyl-N-isopropyl-4-[(6-methoxy-1H-indazol-5-yl)amino]-N-methyl-5,6,7,8-tetrahydro[1]benzothieno[2,3-d]pyrimidine-7-carboxamide] |
| 165 nM | COCC1(OC)CCc2c(sc3ncnc(Nc4cc5cn[nH]c5cc4Cl)c23)C1 (single isomer, unassigned) [Example 47, (7S) or (7R) N-(6-Chloro-1H-indazol-5-yl)-7-methoxy-7-(methoxymethyl)-5,6,7,8-tetrahydro[1]benzothieno[2,3-d]pyrimidin-4-amine] |
| 2.5 nM | COc1cc2[nH]ncc2cc1Nc1ncnc2sc3c(c12)CC[C@](C)(C(=O)N(C)OC)C3 [Example 58, (7S) N-Methoxy-4-[(6-methoxy-1H-indazol-5-yl)amino]-N,7-dimethyl-5,6,7,8-tetrahydro[1]benzothieno[2,3-d]pyrimidine-7-carboxamide] |

| Structure (SMILES) | IC50 |
| --- | --- |
| O=P(OCC1CCc2c(sc3ncnc(Nc4ccc5[nH]ncc5c4)c23)C1)(Oc1ccccc1)Oc1ccccc1 (racemic) [Example 5, (RS)-[4-(1H-Indazol-5-ylamino)-5,6,7,8-tetrahydro[1]benzothieno[2,3-d]pyrimidin-7-yl]methyl diphenyl phosphate] | 205 nM |
